From US11278497B2, “Co-spray drying of meropenem and colistin and the uses thereof” (Purdue Research Foundation, priority 2018, dated 2022)
Values after ≈ are worked out from the molar mass of the structure shown. Where two headings read alike, the source gives them in different places.

How the values were obtained:
A. baumannii N16870 [1] = assay: Minimum inhibitory concentration, clinical isolate A. baumannii N16870; format: cell-based, Acinetobacter baumannii
[2] = test system: Pseudomonas aeruginosa 19147; assay: Minimum inhibitory concentration, clinical isolate Pseudomonas aeruginosa 19147; format: cell-based
A. baumannii N16870 [3] = assay: Time-kill assay against A. baumannii N16870; format: cell-based, Acinetobacter baumannii; conditions: for time-kill antibacterial activity, monotherapy (summary): considerable regrowth except colistin at 48 mg/L
Procedure: (§1) Time-kill studies were conducted for meropenem, colistin and three combinations (Colistin:Meropenem_1:3, Colistin:Meropenem_1:1 and Colistin:Meropenem_3:1) against A. baumannii N16870 and P. aeruginosa 19147. All experiments were performed with an initial inoculum of ˜10^6 CFU/mL in 20 mL of Cation-Adjusted Mueller-Hinton Broth (CAMHB) in 50 mL pyrogen-free and sterile polypropylene tubes. Serial samples (50 μL) were collected at 0, 1, 2, 4, and 24 h for viable counting on nutrient agar plates and the limit of detection was 20 CFU/mL. A ProtoCOL automated colony counter (Synbiosis, Cambridge, United Kingdom) was used to quantify bacteria after 24 h of incubation at 37° C. Bacterial growth was measured after 0, 1, 2, 4 and 24 h of incubation at 37° C. A growth control without antibiotic was also tested.

P. aeruginosa 19147 = assay: Time-kill assay against P. aeruginosa 19147; format: cell-based, Pseudomonas aeruginosa; conditions: for time-kill antibacterial activity, monotherapy (summary): considerable regrowth; for complete bacterial killing in time-kill: monotherapy, e.g. 192 mg/L, at 24 h
Procedure: as §1

[4] = cited from earlier work
[5] = monotherapy 16 mg/L, up to 24 h

Row | Molecule | minimum inhibitory concentration [MIC] (A. baumannii N16870 [1]) [µg/mL] | MIC [2] [µg/mL] | regrowth in time-kill (A. baumannii N16870 [3]; monotherapy 16 mg/L) | time-kill antibacterial effect (A. baumannii N16870 [3]; [5]) | time-kill antibacterial effect (A. baumannii N16870 [3]; monotherapy 48 mg/L) | time-kill antibacterial activity, monotherapy (summary) (A. baumannii N16870 [3]) | time-kill antibacterial activity, monotherapy (summary) (P. aeruginosa 19147) | complete bacterial killing in time-kill (P. aeruginosa 19147) | water solubility [4] | MIC (A. baumannii N16870 [1]; Acinetobacter baumannii) [µg/mL] | MIC ([2]; read-out: MIC) [µg/mL] | regrowth in time-kill (A. baumannii N16870 [3]; monotherapy 48 mg/L)
1 | colistin | 0.5 | 0.5 | regrowth was evident in 4 h | bacterial killing | bacterial killing | weak antibacterial activity | weak antibacterial activity | complete killing could not be achieved | – | – | – | –
2 | C[C@@H](O)[C@H]1C(=O)N2C(C(=O)O)=C(S[C@@H]3CN[C@H](C(=O)N(C)C)C3)[C@H](C)[C@H]12 [meropenem] | – | – | – | no antibacterial effect | marginal antibacterial activity | weak antibacterial activity | weak antibacterial activity | complete killing could not be achieved | approximately 16.4 mg/mL | 16 (≈ 41.7 µM) | 16 (≈ 41.7 µM) | regrowth was observed in 4 h
